23 molecules from ChEMBL document CHEMBL3612062, “Antitumor activity of endoperoxide-iron chelator conjugates-design, synthesis and biological evaluation” (Eur J Med Chem, 2015) can be followed below.

Data set [1] deals with HL-60. Description: Cytotoxicity against human HL60 cells after 48 hrs by MTT assay. Format: functional, cell-based. The settings on record: HL-60, 48 h.
The test system of data set [2] is A549. Kind of data set: Cytotoxicity against human A549 cells after 48 hrs by MTT assay. Format: functional, cell-based. As to conditions: A549, 48 h; call rule not given here. On the technique in general: Formazan colour is commonly taken as a measure of viable cells.
Data set [3] has as its system SMMC-7721. Description: Cytotoxicity against human SMMC7721 cells after 48 hrs by MTT assay. Format: functional, cell-based. As to conditions: SMMC-7721, 48 h.
Data set [4] in a line: Cytotoxicity against human HL7702 cells after 48 hrs by MTT assay. As to conditions: L02, 48 h. The format is cell-based.
For data set [5], the system named is SW480. Kind of data set: Cytotoxicity against human SW480 cells after 48 hrs by MTT assay. The settings on record: SW480, 48 h. Format: functional, cell-based.
The nature of data set [6]: Selectivity ratio of IC50 for human HL7702 cells to IC50 for human SMMC7721 cells. As to conditions: HL7702 cells versus SMMC7721 cells, read-out: Ratio IC50. The format is ADME, cell-based, SMMC-7721.
Data set [7] relates to SMMC-7721. Description: Cytotoxicity against human SMMC7721 cells assessed activity loss of cells at 5 uM after 48 hrs by MTT assay. Format: functional.
Data set [8] is described as follows: Binding affinity to ferric oxide assessed as dissociation degree at 1:1 ligand to metal ratio by UV-visible spectrophotometry.
Data set [9] can be described thus: Metal chelating activity of the compound assessed as formation of iron-compound complex at 100 uM using FeCl3 by UV-vis spectrometry. The format is physicochemical.
The nature of data set [10]: Metal chelating activity of the compound assessed as formation of iron-compound complex at 100 uM using FeSO4 by UV-vis spectrometry. Format: physicochemical.
Data set [11] relates to SMMC-7721. Kind of data set: Increase of cell survival in human SMMC7721 at 50 uM after 48 hrs by MTT assay in presence of deferoxamine. The format is functional.
Data set [12] can be described thus: Stability of the compound-ferric oxide complex. Format: physicochemical.
Data set [13] concerns SMMC-7721. Kind of data set: Induction of apoptosis in human SMMC7721 cells at 10 uM after 24 hrs using annexin-V FITC and propidium iodide staining by flow cytometry analysis. Format: functional.
Data set [14] relates to SMMC-7721. Kind of data set: Induction of apoptosis in human SMMC7721 cells after 24 hrs using annexin-V FITC and propidium iodide staining by flow cytometry analysis. The format is functional, cell-based. A general note: In flow cytometry, cells or beads pass a laser one at a time.
Data set [15] concerns SMMC-7721. Description: Induction of apoptosis in human SMMC7721 cells at 20 uM after 24 hrs using annexin-V FITC and propidium iodide staining by flow cytometry analysis. The format is functional.
Data set [16] can be described thus: Binding affinity to ferric oxide assessed as dissociation degree at 2:1 ligand to metal ratio by UV-visible spectrophotometry.

Usually IC50 stands for the concentration needed to halve the response being measured. Lower therefore signals inhibition by little substance. In the case of `Oc1ccc(N[C@H]2CC[C@]3(CC2)OC[C@]2(O3)C3CC4CC(C3)CC2C4)c2cccnc12` (mixture of isomers), the IC50 in data set [1] was 9.2 µM; in data set [2], 17.2 µM; in [3], 12.6 µM; in data set [4] it was 30.1 µM; in [5], above 50 µM. Further, in data set [6], the selectivity ratio amounted to 2.39.

On to `CC(=O)N(O)CCCCCNC(=O)CCC(=O)N(O)CCCCCNC(=O)CCC(=O)N(O)CCCCCN` [DEFEROXAMINE], for which the Activity in [7] is reported as 5%.

As for `O=C(O)[C@H]1CC[C@]2(CC1)OO[C@]1(O2)C2CC3CC(C2)CC1C3`, the IC50 in [1], in [2], in [3], in data set [4] and in data set [5] was above 100 µM throughout.

Regarding `O=C1CCC2(CC1)OOC1(O2)C2CC3CC(C2)CC1C3` (centres undefined), the concentration for half-maximal inhibition (IC50) in [1], in [2], in data set [3], in [4] and in data set [5] was above 100 µM throughout.

Turning to `Nc1ccc(O)c2ncccc12`, the IC50 in data set [1] was 13.8 µM; in [2], above 50 µM; in data set [3], above 50 µM; in data set [4], above 50 µM; in data set [5] it was above 50 µM.

On to `O=C(NC1CCC2(CC1)OOC1(OO2)C2CC3CC(C2)CC1C3)c1ccc(O)c(O)c1` (centres undefined), for which the IC50 in data set [1] is 25 µM; in data set [2], above 50 µM; in [3], 33.8 µM; in [4], above 50 µM; in data set [5], above 50 µM. Further, the Activity was 36% in [8], “Active” in data set [9], “Active” in data set [10] and 10% in [11]. Also, in [12], the Stability entry is “Stable”.

Regarding `Oc1ccc(NC2CCC3(CC2)OOC2(OO3)C3CC4CC(C3)CC2C4)c2cccnc12` (mixture of isomers), the IC50 in data set [1] was 6 µM; in data set [2] it was 11.8 µM; in data set [3], 7.5 µM; in data set [4], 27.7 µM; in data set [5] it was above 50 µM. For the same molecule, the Activity in data set [13] was 12.2%; in data set [9], “Active”; in data set [14], “Dose-dependent effect”; in [15] it was 33.2%; in data set [10], “Active”; in data set [11], 15%. In [16], the Activity was found to be 18%. Besides, the Stability entry in data set [12] is recorded as “Stable”. Also, the selectivity ratio in data set [6] came to 3.71.

In the case of `O=C(NO)[C@H]1CC[C@@]2(CC1)OC[C@]1(OO2)C2CC3CC(C2)CC1C3` (mixture of isomers), the IC50 in data set [1], in [2], in data set [3], in [4] and in [5] was above 50 µM throughout.

On to `O=C(N[C@H]1CC[C@]2(CC1)OC[C@]1(O2)C2CC3CC(C2)CC1C3)c1ccc(O)c(O)c1` (mixture of isomers), for which the IC50 in [1] is 35.5 µM; in [2], above 50 µM; in data set [3], above 50 µM; in data set [4] it was above 50 µM; in data set [5], above 50 µM.

In the case of `O=C(N[C@H]1CC[C@@]2(CC1)OC[C@]1(OO2)C2CC3CC(C2)CC1C3)c1ccc(O)c(O)c1` (mixture of isomers), the IC50 in data set [1] was 34.8 µM; in [2], above 50 µM; in [3] it was above 50 µM; in data set [4] it was above 50 µM; in data set [5], above 50 µM. Also, the Activity in [11] is reported as 10%.

As for `O=C(NC1CCC2(CC1)OCC1(CO2)C2CC3CC(C2)CC1C3)c1ccc(O)c(O)c1` (mixture of isomers), the half-maximal inhibitory concentration (IC50) in [1] is 30.1 µM; in [2] it was above 50 µM; in data set [3] it was above 50 µM; in [4], above 50 µM; in [5] it was above 50 µM.

On to `C[C@H]1[C@@H](O)O[C@@H]2O[C@@]3(C)CC[C@H]4[C@H](C)CC[C@@H]1[C@@]24OO3` [ARTENIMOL], for which the IC50 in data set [1] is 18.7 µM; in data set [2], 30.1 µM; in [3], 13.8 µM; in data set [4] it was 34.9 µM; in [5] it was above 100 µM. The selectivity ratio in data set [6] was determined as 2.52.

`O=C1CCC2(CC1)OCC1(OO2)C2CC3CC(C2)CC1C3` (centres undefined): the IC50 in data set [1], in data set [2], in [3], in [4] and in [5] was above 100 µM in each case.

With `O=C1CCC2(CC1)OOC1(OO2)C2CC3CC(C2)CC1C3`, the IC50 in data set [1], in data set [2], in data set [3], in [4] and in [5] was above 100 µM in each case.

For `Oc1ccc(NC2CCC3(CC2)OCC2(CO3)C3CC4CC(C3)CC2C4)c2cccnc12` (mixture of isomers), the IC50 is 12.9 µM in data set [1]; 45.6 µM in [2]; 20.3 µM in data set [3]; 41.9 µM in data set [4]; above 50 µM in data set [5]. Moreover, the selectivity ratio in data set [6] was 2.06.

With `O=C(O)[C@H]1CC[C@@]2(CC1)OC[C@]1(OO2)C2CC3CC(C2)CC1C3`, the IC50 in [1], in data set [2], in data set [3], in [4] and in data set [5] was above 100 µM throughout.

For `O=C(NO)C1CCC2(CC1)OOC1(OO2)C2CC3CC(C2)CC1C3` (centres undefined), the IC50 in [1], in data set [2], in data set [3], in data set [4] and in data set [5] was above 50 µM each time.

For the molecule `Oc1ccc(N[C@H]2CC[C@]3(CC2)OO[C@]2(O3)C3CC4CC(C3)CC2C4)c2cccnc12` (mixture of isomers), the 50% inhibitory concentration (IC50) in data set [1] was 8.1 µM; in [2], 15.9 µM; in [3], 7.3 µM; in data set [4], 25.7 µM; in data set [5], above 50 µM. Besides, the Activity in data set [11] is 15%. Also, the selectivity ratio in data set [6] came out at 3.52.

`O=C(O)C1CCC2(CC1)OOC1(OO2)C2CC3CC(C2)CC1C3` (centres undefined): the 50% inhibitory concentration (IC50) in data set [1], in data set [2], in data set [3], in [4] and in data set [5] was above 100 µM each time.

Regarding `O=C(N[C@H]1CC[C@]2(CC1)OO[C@]1(O2)C2CC3CC(C2)CC1C3)c1ccc(O)c(O)c1` (mixture of isomers), the IC50 in data set [1] is 31.2 µM; in data set [2], above 50 µM; in data set [3], above 50 µM; in data set [4], above 50 µM; in data set [5], above 50 µM. In addition, the Activity in [11] is 10%.

In the case of `O=C(NO)[C@H]1CC[C@]2(CC1)OO[C@]1(O2)C2CC3CC(C2)CC1C3` (mixture of isomers), the IC50 in [1], in data set [2], in data set [3], in data set [4] and in data set [5] was above 50 µM throughout.

For the molecule `O=C(O)c1ccc(O)c(O)c1` [PROTOCATECHUIC ACID], the IC50 in [1], in data set [2], in data set [3], in [4] and in data set [5] was above 50 µM each time.

`Oc1ccc(N[C@H]2CC[C@@]3(CC2)OC[C@]2(OO3)C3CC4CC(C3)CC2C4)c2cccnc12` (mixture of isomers): the IC50 in data set [1] is 6.6 µM; in data set [2], 23.9 µM; in data set [3], 11 µM; in [4] it was 36 µM; in data set [5], above 50 µM. In addition, in data set [11], the Activity turned out to be 15%. The selectivity ratio in data set [6] worked out at 3.28.
